Laboratory results taken from ChEMBL document CHEMBL1130683, “Aryl C-glycosides: physiologically stable glycomimetics of sialyl Lewis X” (Bioorg Med Chem Lett, 1998).

Tests used:
[1] = biological target: T1, P-selectin (Homo sapiens, UniProt P16109); assay: Inhibitory activity against P-selectin IgG chimeras binding to sLex coating 96 wells using competitive cell-free ELISA assay was determined.
T1 sequence (P16109 whole entry): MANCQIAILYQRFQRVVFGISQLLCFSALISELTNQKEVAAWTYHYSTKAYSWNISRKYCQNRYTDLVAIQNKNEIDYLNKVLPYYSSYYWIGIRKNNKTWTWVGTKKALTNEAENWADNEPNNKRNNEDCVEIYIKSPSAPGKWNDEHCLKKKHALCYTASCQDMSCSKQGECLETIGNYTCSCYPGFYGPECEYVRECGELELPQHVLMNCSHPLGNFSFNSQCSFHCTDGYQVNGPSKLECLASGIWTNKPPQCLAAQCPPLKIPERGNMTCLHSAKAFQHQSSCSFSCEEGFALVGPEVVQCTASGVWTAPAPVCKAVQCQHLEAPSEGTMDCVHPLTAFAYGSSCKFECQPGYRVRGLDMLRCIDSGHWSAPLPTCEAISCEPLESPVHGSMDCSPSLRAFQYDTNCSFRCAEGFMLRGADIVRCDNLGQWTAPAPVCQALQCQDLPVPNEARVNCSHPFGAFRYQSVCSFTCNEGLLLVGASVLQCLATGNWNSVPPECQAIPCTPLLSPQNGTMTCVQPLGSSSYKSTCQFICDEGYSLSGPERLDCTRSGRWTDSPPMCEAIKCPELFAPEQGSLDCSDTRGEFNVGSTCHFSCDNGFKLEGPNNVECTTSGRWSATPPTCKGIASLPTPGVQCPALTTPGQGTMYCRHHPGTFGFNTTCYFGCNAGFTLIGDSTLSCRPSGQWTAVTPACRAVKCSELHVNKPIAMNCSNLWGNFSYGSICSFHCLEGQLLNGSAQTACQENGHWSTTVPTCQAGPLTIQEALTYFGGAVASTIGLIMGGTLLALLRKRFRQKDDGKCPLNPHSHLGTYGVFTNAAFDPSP

[2] = biological target: T2, E-selectin (Homo sapiens, UniProt P16581); assay: Inhibitory activity against Selectin E IgG chimeras binding to sLex coating 96 wells using competitive cell-free ELISA assay was determined.
T2 sequence (P16581 whole entry): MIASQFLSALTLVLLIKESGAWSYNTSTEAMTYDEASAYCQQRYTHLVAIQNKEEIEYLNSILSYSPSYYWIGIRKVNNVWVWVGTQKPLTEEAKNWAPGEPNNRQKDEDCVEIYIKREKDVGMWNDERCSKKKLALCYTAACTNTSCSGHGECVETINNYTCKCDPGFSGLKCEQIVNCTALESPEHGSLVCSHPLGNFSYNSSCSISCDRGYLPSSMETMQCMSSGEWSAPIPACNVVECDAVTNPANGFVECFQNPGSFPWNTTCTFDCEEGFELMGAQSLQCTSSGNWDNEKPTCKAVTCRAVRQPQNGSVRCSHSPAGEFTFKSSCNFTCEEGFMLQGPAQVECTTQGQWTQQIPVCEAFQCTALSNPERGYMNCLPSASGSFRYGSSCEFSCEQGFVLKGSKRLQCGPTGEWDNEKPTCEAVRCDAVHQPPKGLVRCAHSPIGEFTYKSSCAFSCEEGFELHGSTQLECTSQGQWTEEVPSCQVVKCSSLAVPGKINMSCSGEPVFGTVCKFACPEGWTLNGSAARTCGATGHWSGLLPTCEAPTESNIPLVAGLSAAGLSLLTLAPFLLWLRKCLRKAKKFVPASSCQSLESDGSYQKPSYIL

[3] = biological target: T3, L-selectin (Homo sapiens, UniProt P14151); assay: Inhibitory activity against L-selectin IgG chimeras binding to sLex coating 96 wells using competitive cell-free ELISA assay was determined.
T3 sequence (P14151 whole entry): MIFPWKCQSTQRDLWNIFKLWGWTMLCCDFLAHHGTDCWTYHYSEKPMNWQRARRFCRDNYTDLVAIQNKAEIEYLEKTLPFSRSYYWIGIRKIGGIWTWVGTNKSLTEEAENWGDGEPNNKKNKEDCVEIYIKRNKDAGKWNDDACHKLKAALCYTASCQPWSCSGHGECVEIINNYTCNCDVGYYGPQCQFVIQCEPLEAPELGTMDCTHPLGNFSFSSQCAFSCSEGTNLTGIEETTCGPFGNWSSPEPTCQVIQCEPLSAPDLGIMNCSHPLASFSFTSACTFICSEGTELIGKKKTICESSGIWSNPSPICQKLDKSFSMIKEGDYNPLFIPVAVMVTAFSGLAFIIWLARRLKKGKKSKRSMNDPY

| Compound | IC50 [1] | IC50 [2] | IC50 [3] |
| --- | --- | --- | --- |
| COc1cc(CC(=O)O)c(C2OC(C)C(O)C(O)C2O)c(OC)c1OC (stereo unspecified) | 40 µM | > 1000 µM | 114 µM |
| COc1ccc(C2(C(=O)O)CCCCC2)cc1[C@H]1O[C@@H](C)[C@H](O)[C@H](O)[C@@H]1O | 22 µM | > 1000 µM | 35 µM |
| COc1ccc(CC(=O)O)cc1C1OC(C)C(O)C(O)C1O (stereo unspecified) | 1 µM | > 1000 µM | 3 µM |
| COc1ccc(CCCC(=O)O)cc1C1OC(C)C(O)C(O)C1O (stereo unspecified) | 5 µM | > 1000 µM | 170 µM |
| COc1ccc(C2(C(=O)O)CCCCC2)cc1C1OCC(O)C(O)C1O (stereo unspecified) | 8 µM | > 1000 µM | 11 µM |
| COc1ccc(C2(C(=O)O)CCCCC2)cc1C1OC(CO)C(O)C(O)C1O (stereo unspecified) | 3 µM | > 1000 µM | 1 µM |
| COc1ccc(C2(C(=O)O)CCCCC2)cc1[C@H]1O[C@@H](C)[C@@H](O)[C@H](O)[C@@H]1O | 7 µM | > 1000 µM | 106 µM |
